This passage reports EC (150% of control) results from patent publication US9657014B2, “Substituted 1,6-naphthyridines” (Hoffmann-La Roche Inc., priority 2012, dated 2017).

The subject of one test is human embryonic stem cell derived neural stem cells (NSCs). The test can be described thus: Neural stem cell proliferation assay (neurogenesis assay). The class given is cell-based. Particulars: Homo sapiens, Neural stem cell, 96 h; Table 1, novel compounds; concentration at which 150% activity of control (100%) is reached; ATP levels (CellTiterGlo) after 4 days incubation. On the procedure:
Neural Stem Cell Proliferation Assay
Neurogenic properties of small molecules are determined based on the proliferation of human embryonic stem cell derived neural stem cells (NSCs) which were derived via a dual smad inhibition as previously described (Chambers, S. M., et al., Highly efficient neural conversion of human ES and iPS cells by dual inhibition of SMAD signaling, Nature biotechnology, 2009. 27 (3): p. 275-80.)
Compounds respond is measured by the increase in cells based on ATP levels (Promega:CellTiterGlo®) after an incubation period of 4 days.
NSCs are thawed and expanded over 3 passages. On the 14th day, NSCs are seeded in Polyornithin/Laminin coated 384 well plates at a cell density of 21,000 cells/cm^2 in a media volume of 38 μl.
4 hours after cell seeding, compound solutions are added at a volume of 2 μl. Stock solutions of the compounds (water, 5% DMSO) are diluted to obtain a dose response (11 points, dilution factor is 2), ranging from 8 μM to 8 nM. Controls are run to consistently determine the neurogenic properties of the cells:
Negative (neutral) control is cell culture Media (final DMSO concentration: 0.25%).
Positive controls are: • 1. cell culture Media+100 ng/ml FGF2 (final DMSO concentration: 0.1%) • 2. cell culture Media+20 ng/ml EGF (final DMSO concentration: 0.1%) • 3. cell culture Media+100 ng/ml Wnt3a (final DMSO concentration: 0.1%)
After 4 days incubation at 37° C., 5% CO2, the amount of ATP per well is quantified. The ATP concentration is proportional to the cell number. ATP is quantified by using the Promega CellTiterGlo® kit. The CellTiterGlo® reagents contain a cell lysis buffer, a thermo stable luciferase (UltraGlo™ recombinant luciferase), magnesium and luciferin. Luciferin reacts with ATP producing oxyluciferin, AMP and light. The luminescence signal is proportional to the ATP content.
The value of negative (neutral) control is determined for each assay plate by taking the average of 16 negative control wells. The neurogenic compound response is calculated for each compound as (compound/Negative Control)*100.
The values of EC150 from the dose response curve are determined for each test compound. The EC150 is the compound concentration at which 150% activity of control (100%) is reached.
(In ATP-based viability assays light output follows the ATP content of the culture.)
The molecule `O=C(c1ccc2cncc(-c3ccc(Cl)c(F)c3)c2n1)N1CCC(O)C1` (stereo not shown) [Example 131, (8-(4-Chloro-3-fluorophenyl)-1,6-naphthyridin-2-yl)(3-hydroxypyrrolidin-1-yl)methanone] returned an EC (150% of control) of 0.07 µM.

`Cc1cc(-c2cncc3ccc(C(N)=O)nc23)ccn1` [Example 90, 8-(2-Methylpyridin-4-yl)-1,6-naphthyridine-2-carboxamide]: the EC (150% of control) was found to be 0.17 µM.

The molecule `O=C(c1ccc2cncc(-c3ccc(Cl)cc3F)c2n1)N1CCC(O)C1` (stereo not shown) [Example 130, (8-(4-Chloro-2-fluorophenyl)-1,6-naphthyridin-2-yl)(3-hydroxypyrrolidin-1-yl)methanone] returned an EC (150% of control) of 0.13 µM.

`CS(=O)(=O)c1ccc(-c2cncc3ccc(C(N)=O)nc23)cc1` [Example 86, 8-(4-(Methylsulfonyl)phenyl)-1,6-naphthyridine-2-carboxamide]: the EC (150% of control) was 0.03 µM.

`O=C(NCc1ccccc1)c1ccc2cncc(-c3ccccc3Cl)c2n1` [Example 15, N-Benzyl-8-(2-chlorophenyl)-1,6-naphthyridine-2-carboxamide] gave an EC (150% of control) of 0.58 µM.

In turn, `CS(=O)(=O)c1ccc(CNC(=O)c2ccc3cncc(-c4ccc(F)cc4F)c3n2)cc1` [Example 114, 8-(2,4-Difluorophenyl)-N-(4-(methylsulfonyl)benzyl)-1,6-naphthyridine-2-carboxamide] registered an EC (150% of control) of 0.51 µM.

The molecule `CC(C)(C)CNC(=O)c1ccc2cncc(-c3ccc(F)c(F)c3)c2n1` [Example 121, 8-(3,4-Difluorophenyl)-N-neopentyl-1,6-naphthyridine-2-carboxamide] came in with an EC (150% of control) of 0.26 µM.

Take `Cn1cc(-c2cncc3ccc(C(N)=O)nc23)cn1` [Example 98, 8-(1-Methyl-1H-pyrazol-4-yl)-1,6-naphthyridine-2-carboxamide]: the EC (150% of control) came out at 0.14 µM.

Take `Cc1ccnc(-c2cncc3ccc(C(=O)NCc4ccccc4)nc23)c1` [Example 24, N-Benzyl-8-(4-methylpyridin-2-yl)-1,6-naphthyridine-2-carboxamide]: the EC (150% of control) was 0.94 µM.

On to `COc1ccccc1-c1cncc2ccc(C(=O)NCCCn3ccnc3)nc12` [Example 39, N-(3-(1H-Imidazol-1-yl)propyl)-8-(2-methoxyphenyl)-1,6-naphthyridine-2-carboxamide], for which the EC (150% of control) came to 0.74 µM.

With `CC(NC(=O)c1ccc2cncc(-c3ccc(Cl)cc3Cl)c2n1)C(C)(C)O` (stereo not shown) [Example 172, 8-(2,4-Dichlorophenyl)-N-(3-hydroxy-3-methylbutan-2-yl)-1,6-naphthyridine-2-carboxamide], the EC (150% of control) is 0.5 µM.

In the case of `CN(CC1CC1)C(=O)c1ccc2cncc(-c3ccc(Cl)cc3)c2n1` [Example 66, 8-(4-Chlorophenyl)-N-(cyclopropylmethyl)-N-methyl-1,6-naphthyridine-2-carboxamide], the EC (150% of control) came to 0.7 µM.

`NC(=O)c1ccc2cncc(-c3ccc4c(c3)OCO4)c2n1` [Example 91, 8-(Benzo[d][1,3]dioxol-5-yl)-1,6-naphthyridine-2-carboxamide]: the EC (150% of control) is 0.03 µM.

In turn, `CC(NC(=O)c1ccc2cncc(-c3cccc(OCC(F)(F)F)c3)c2n1)C(C)(C)O` (stereo not shown) [Example 164, N-(3-Hydroxy-3-methylbutan-2-yl)-8-(3-(2,2,2-trifluoroethoxyl)phenyl)-1,6-naphthyridine-2-carboxamide] had an EC (150% of control) of 0.76 µM.

The molecule `CS(=O)(=O)c1ccccc1-c1cncc2ccc(C(N)=O)nc12` [Example 88, 8-(2-(Methylsulfonyl)phenyl)-1,6-naphthyridine-2-carboxamide] had an EC (150% of control) of 0.5 µM.

`N#Cc1ccc(-c2cncc3ccc(C(N)=O)nc23)cc1` [Example 85, 8-(4-Cyanophenyl)-1,6-naphthyridine-2-carboxamide] gave an EC (150% of control) of 0.05 µM.

`CCCCCCC(=O)NCc1cccc(-c2cncc3ccc(C(N)=O)nc23)c1` [Example 151, 8-(3-(Heptanamidomethyl)phenyl)-1,6-naphthyridine-2-carboxamide] came in with an EC (150% of control) of 0.03 µM.

`Cc1cc2cncc(-c3ccc(OC(F)(F)F)cc3)c2nc1C(N)=O` [Example 154, 3-Methyl-8-(4-(trifluoromethoxy)phenyl)-1,6-naphthyridine-2-carboxamide] registered an EC (150% of control) of 2.19 µM.

Consider `CS(=O)(=O)c1ccc(CNC(=O)c2ccc3cncc(-c4ccc(F)c(F)c4)c3n2)cc1` [Example 115, 8-(3,4-Difluorophenyl)-N-(4-(methylsulfonyl)benzyl)-1,6-naphthyridine-2-carboxamide], for which the EC (150% of control) stood at 1.95 µM.

Turning to `CN1CCN(C(=O)c2ccc3cncc(-c4ccc(Cl)cc4)c3n2)CC1` [Example 73, (8-(4-Chlorophenyl)-1,6-naphthyridin-2-yl)(4-methylpiperazin-1-yl)methanone], the EC (150% of control) stood at 0.64 µM.

The molecule `COc1ccc(-c2cncc3ccc(C(=O)NCc4ccccn4)nc23)cc1` [Example 23, 8-(4-Methoxyphenyl)-N-(pyridin-2-ylmethyl)-1,6-naphthyridine-2-carboxamide] gave an EC (150% of control) of 0.03 µM.

Consider `CS(=O)(=O)CCNC(=O)c1ccc2cncc(-c3ccc(F)cc3)c2n1` [Example 135, 8-(4-Fluorophenyl)-N-(2-(methylsulfonyl)ethyl)-1,6-naphthyridine-2-carboxamide], for which the EC (150% of control) was found to be 0.08 µM.

Consider `O=C(NCC(F)(F)F)c1ccc2cncc(-c3cc(F)ccc3F)c2n1` [Example 128, 8-(2,5-Difluorophenyl)-N-(2,2,2-trifluoroethyl)-1,6-naphthyridine-2-carboxamide], for which the EC (150% of control) was 0.13 µM.

`CC(C)(C)CNC(=O)c1ccc2cncc(-c3ccc(F)cc3)c2n1` [Example 117, 8-(4-Fluorophenyl)-N-neopentyl-1,6-naphthyridine-2-carboxamide] gave an EC (150% of control) of 0.07 µM.

On to `CC(NC(=O)c1ccc2cncc(-c3cc(F)c(F)c(F)c3)c2n1)C(C)(C)O` (stereo not shown) [Example 173, N-(3-Hydroxy-3-methylbutan-2-yl)-8-(3,4,5-trifluorophenyl)-1,6-naphthyridine-2-carboxamide], for which the EC (150% of control) came out at 0.9 µM.

Molecule `O=C(c1ccc2cncc(-c3ccc(Cl)cc3)c2n1)N1CCNCC1` [Example 61, (8-(4-Chlorophenyl)-1,6-naphthyridin-2-yl)(piperazin-1-yl)methanone] gave an EC (150% of control) of 3.15 µM.

With `CC(C)(C)CNC(=O)c1ccc2cncc(-c3ccc(F)cc3F)c2n1` [Example 120, 8-(2,4-Difluorophenyl)-N-neopentyl-1,6-naphthyridine-2-carboxamide], the EC (150% of control) is 0.08 µM.

The molecule `O=C(NCc1ccncc1)c1ccc2cncc(-c3ccncc3)c2n1` [Example 32, 8-(Pyridin-4-yl)-N-(pyridin-4-ylmethyl)-1,6-naphthyridine-2-carboxamide] yielded an EC (150% of control) of 0.29 µM.

Staying with this test, now noted: Homo sapiens, Neural stem cell, 96 h; Table 2, known compounds; concentration at which 150% activity of control (100%) is reached; ATP levels (CellTiterGlo) after 4 days incubation.
In turn, `COc1ccc(-c2cncc3ccc(C(=O)NCc4ccncc4)nc23)cc1` [Example 181, 8-(4-Methoxy-phenyl)-[1,6]naphthyridine-2-carboxylic acid (pyridin-4-ylmethyl)-amide] came in with an EC (150% of control) of 0.04 µM.

`O=C(c1ccc2cncc(-c3ccccc3)c2n1)N1CCN(c2ccccn2)CC1` [Example 192, (8-Phenyl-[1,6]naphthyridin-2-yl)-(4-pyridin-2-yl-piperazin-1-yl)-methanone] showed an EC (150% of control) of 1.4 µM.

Molecule `O=C(c1ccc2cncc(-c3ccsc3)c2n1)N1CCN(c2ccccn2)CC1` [Example 200, (4-Pyridin-2-yl-piperazin-1-yl)-(8-thiophen-3-yl-[1,6]naphthyridin-2-yl)-methanone] showed an EC (150% of control) of 0.8 µM.

In turn, `O=C(NCc1ccc(Cl)cc1)c1ccc2cncc(-c3ccsc3)c2n1` [Example 201, 8-Thiophen-3-yl-[1,6]naphthyridine-2-carboxylic acid 4-chloro-benzylamide] gave an EC (150% of control) of 0.8 µM.

Turning to `COc1ccc(-c2cncc3ccc(C(=O)NCc4cnc(C)cn4)nc23)cc1` [Example 180, 8-(4-Methoxy-phenyl)-[1,6]naphthyridine-2-carboxylic acid (5-methyl-pyrazin-2-ylmethyl)-amide], the EC (150% of control) was 1.26 µM.

`O=C(NCc1ccc(C(F)(F)F)nc1)c1ccc2cncc(-c3ccsc3)c2n1` [Example 203, 8-Thiophen-3-yl-[1,6]naphthyridine-2-carboxylic acid (6-trifluoromethyl-pyridin-3-ylmethyl)-amide] yielded an EC (150% of control) of 1.5 µM.
